Values of other authors, collected in EP3473244A1, “CONTROLLED RELEASE ORAL TAMSULOSIN HYDROCHLORIDE” (Veru Inc., priority 2017, dated 2019).

Conditions: reported value used to set PK sampling times

T ½: 5 h
SMILES: CCOc1ccccc1OCCN[C@H](C)Cc1ccc(OC)c(S(N)(=O)=O)c1 [Tamsulosin]
